Measured values taken from ChEMBL document CHEMBL1201862, “PubChem BioAssay data set” (2004).
Activity calls are given as the source filed them.

What was measured:
[1] = target: T1, Leucine aminopeptidase (Plasmodium falciparum 3D7, UniProt Q8IL11); assay: P. falciparum M17LAP inhibitors, primary screen, biochemical, fluorogenic H-Leu-NHMec substrate, 1536-well (AID 1619); format: functional
T1 sequence (Q8IL11 whole entry): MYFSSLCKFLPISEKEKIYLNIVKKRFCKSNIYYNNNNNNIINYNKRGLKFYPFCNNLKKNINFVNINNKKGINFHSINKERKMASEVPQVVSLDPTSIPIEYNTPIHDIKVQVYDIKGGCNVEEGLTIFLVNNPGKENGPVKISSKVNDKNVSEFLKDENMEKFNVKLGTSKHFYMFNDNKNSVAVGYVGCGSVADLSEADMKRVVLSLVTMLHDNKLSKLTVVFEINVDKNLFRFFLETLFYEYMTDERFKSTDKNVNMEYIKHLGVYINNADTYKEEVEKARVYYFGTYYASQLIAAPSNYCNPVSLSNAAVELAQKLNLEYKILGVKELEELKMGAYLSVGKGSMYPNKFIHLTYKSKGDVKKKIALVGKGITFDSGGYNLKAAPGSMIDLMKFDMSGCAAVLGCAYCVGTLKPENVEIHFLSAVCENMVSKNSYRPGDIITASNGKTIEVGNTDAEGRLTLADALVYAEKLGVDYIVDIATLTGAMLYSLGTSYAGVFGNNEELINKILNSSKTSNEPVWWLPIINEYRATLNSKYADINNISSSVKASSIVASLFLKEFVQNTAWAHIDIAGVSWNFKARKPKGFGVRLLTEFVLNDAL

[2] = microbe, parasite or virus in culture; format: functional; settings: Mycobacterium tuberculosis
[3] = target: Induced myeloid leukemia cell differentiation protein Mcl-1 (Homo sapiens, UniProt Q07820); format: functional
Chain of Induced myeloid leukemia cell differentiation protein Mcl-1 (Q07820 whole entry): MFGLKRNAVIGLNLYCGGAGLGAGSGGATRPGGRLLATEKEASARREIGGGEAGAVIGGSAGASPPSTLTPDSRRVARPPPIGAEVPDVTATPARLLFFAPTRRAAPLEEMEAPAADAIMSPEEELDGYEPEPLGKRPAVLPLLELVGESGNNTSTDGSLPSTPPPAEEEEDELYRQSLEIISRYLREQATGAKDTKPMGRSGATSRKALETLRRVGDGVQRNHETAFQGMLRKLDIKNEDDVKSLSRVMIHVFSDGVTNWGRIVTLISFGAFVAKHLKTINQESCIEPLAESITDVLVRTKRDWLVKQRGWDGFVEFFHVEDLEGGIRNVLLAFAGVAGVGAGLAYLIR

[4] = target: T2, Histone-lysine N-methyltransferase NSD2 (Homo sapiens, UniProt O96028); format: biochemical
T2 sequence (O96028 whole entry): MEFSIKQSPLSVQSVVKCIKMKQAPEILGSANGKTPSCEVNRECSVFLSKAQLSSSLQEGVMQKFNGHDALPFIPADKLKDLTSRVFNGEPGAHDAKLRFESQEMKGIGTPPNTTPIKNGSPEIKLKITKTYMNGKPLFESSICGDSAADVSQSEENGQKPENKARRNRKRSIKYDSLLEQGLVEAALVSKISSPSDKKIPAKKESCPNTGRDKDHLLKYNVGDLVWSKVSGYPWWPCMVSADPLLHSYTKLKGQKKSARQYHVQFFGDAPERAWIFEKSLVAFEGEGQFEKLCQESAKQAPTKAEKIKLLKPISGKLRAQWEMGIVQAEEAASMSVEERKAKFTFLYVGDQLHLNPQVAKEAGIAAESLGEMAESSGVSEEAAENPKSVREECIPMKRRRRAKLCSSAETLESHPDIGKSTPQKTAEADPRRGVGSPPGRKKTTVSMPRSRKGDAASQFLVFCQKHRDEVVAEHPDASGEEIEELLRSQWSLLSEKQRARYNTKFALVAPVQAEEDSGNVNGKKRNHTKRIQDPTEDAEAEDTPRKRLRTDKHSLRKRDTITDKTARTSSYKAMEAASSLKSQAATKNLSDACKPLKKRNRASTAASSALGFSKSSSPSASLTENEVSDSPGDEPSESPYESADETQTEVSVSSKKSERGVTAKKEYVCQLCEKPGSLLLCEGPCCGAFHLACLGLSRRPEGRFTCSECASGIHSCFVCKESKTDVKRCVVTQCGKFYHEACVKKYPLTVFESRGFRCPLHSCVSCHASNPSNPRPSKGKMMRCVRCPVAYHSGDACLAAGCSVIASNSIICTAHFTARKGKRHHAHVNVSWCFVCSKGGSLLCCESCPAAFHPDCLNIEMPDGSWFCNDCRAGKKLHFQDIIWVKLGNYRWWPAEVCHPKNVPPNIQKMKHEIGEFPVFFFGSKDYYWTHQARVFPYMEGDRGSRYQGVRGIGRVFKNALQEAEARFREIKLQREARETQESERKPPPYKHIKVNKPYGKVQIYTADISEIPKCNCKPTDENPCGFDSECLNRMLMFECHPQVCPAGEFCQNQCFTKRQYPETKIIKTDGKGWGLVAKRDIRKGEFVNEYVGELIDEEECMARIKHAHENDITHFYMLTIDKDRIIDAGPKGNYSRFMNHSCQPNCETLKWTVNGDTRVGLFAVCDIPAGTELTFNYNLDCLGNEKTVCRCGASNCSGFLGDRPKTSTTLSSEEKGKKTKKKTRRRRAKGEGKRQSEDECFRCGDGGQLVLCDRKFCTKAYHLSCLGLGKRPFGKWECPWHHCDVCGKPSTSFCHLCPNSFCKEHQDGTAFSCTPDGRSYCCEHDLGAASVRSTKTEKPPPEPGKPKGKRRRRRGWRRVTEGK

[5] = cells; format: functional
[6] = P. falciparum ATP4 D1247Y mutant growth inhibitors, dose response, NITD609-resistant line, SYBR Green, dry powder (AID 1159571); format: functional, cell-based;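 further: parasites synchronized at ring stage by sorbitol before testing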
[7] = P. falciparum Dd2 growth inhibitors, dose response, SYBR Green, dry powder samples (AID 1159566); format: functional, cell-based;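 further: potency for growth inhibition with lower SYBR green DNA signal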
[8] = P. falciparum 3D7-ScDHODH growth inhibitors, dose response, SYBR Green, dry powder samples (AID 1159570); format: functional, cell-based;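 further: parasite growth measured after 72 hours of compound exposure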
[9] = P. falciparum Dd2 growth inhibitors, dose response, SYBR Green, cherry-picked samples (AID 1159567); format: functional, cell-based
[10] = HepG2 cell cytotoxicity, dose response, cytotoxicity control, plate reader, dry powder samples (AID 1159569); format: functional, cell-based;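 further: inhibitor potency with signal falling toward the positive control level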

SMILES	AC50 [6]	AC50 [7]	AC50 [8]	AC50 [9]	AC50 [10]	further results
O=C(CN1C(=O)C2CC=CCC2C1=O)NCC1COc2ccccc2O1 (stereo not given)						IC50 [1]: 8.66 µM (active)
Cc1cc(O)nc(SCC(=O)Nc2cccc3ccccc23)c1C#N						IC50 [1]: 2.2 µM (active)
C=CCc1c(C)nc(SC)nc1Nc1ccc(C(C)=O)cc1						CC50 [2]: > 40 µM (active)
CCN(c1cccc(C)c1)S(=O)(=O)c1ccc2[nH]c(=O)c(=O)[nH]c2c1						IC50 [1]: 1.62 µM (active)
O=C1Oc2ccccc2C(=O)/C1=C/c1c[nH]c2ccccc12						CC50 [2]: 30.9 µM (active); IC50 [3]: 5.56 µM (active)
CCN1CCC(CNCc2cn(-c3ccc(OC)cc3)nc2-c2ccccc2Cl)C1 (stereo not given)						AC50 [4]: > 20 µM (inactive)
CCCN(CCC)CCCNC(=O)c1cn(CC)c2ccc(S(=O)(=O)N3CCc4ccccc4C3)cc2c1=O						AC50 [4]: > 20 µM (inactive)
CCCCN1C(=O)NC(=O)/C(=C/c2ccc[nH]2)C1=O						IC50 [5]: 1.46 µM (active); CC50 [2]: > 40 µM (active)
C[C@@H]1CN([C@@H](C)CO)C(=O)c2c(c3ccccc3n2C)-c2ccccc2CO[C@@H]1CN(C)C(=O)c1cc(Cl)cc(Cl)c1	1.5 µM (active)	1.88 µM (active)	2.02 µM (active)	2.11 µM (active)	22.4 µM (active)	
COc1ccc2c3c(n(C)c2c1)[C@@H](CO)NCC31CCN(Cc2ccc(-c3ccccn3)cc2)CC1	0.56 µM (active)	0.44 µM (active)	0.447 µM (active)	0.696 µM (active)	19.4 µM (active)	
C[C@@H]1CN([C@@H](C)CO)C(=O)c2c(c3ccccc3n2C)-c2ccccc2CO[C@@H]1CN(C)Cc1ccc(Oc2ccccc2)cc1	0.906 µM (active)	0.59 µM (active)	3.44 µM (active)	1.3 µM (active)	22.8 µM (active)	
O=C(Nc1ccc(-c2ccccc2)cc1)[C@H]1[C@H](CO)[C@H]2Cn3c(cccc3=O)[C@@H]1N2Cc1ccccc1	0.921 µM (active)	1.03 µM (active)	1.24 µM (active)	1.44 µM (active)	48.4 µM (active)	
C[C@@H]1CN([C@H](C)CO)C(=O)c2ccccc2-c2ccccc2CO[C@H]1CN(C)C(=O)Nc1cccc(C(F)(F)F)c1	3.23 µM (active)	1.03 µM (active)	1.19 µM (active)	1.45 µM (active)	86.3 µM (active)	
